Laboratory results: PubChem BioAssay (NCI)
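Grown in 96-well plates, cells were treated for 48 hours with each compound at five concentrations. Insufficient inhibition: endpoint recorded as highest concentration tested. GI50 marks 50% less growth. TGI: total growth inhibition.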

Key:
Test in all cases: growth of human tumour cells (NCI), 48 h; in the data active = GI50 below about 0.43 µM; inactive = the rest
[1] = tested on: 786-0 renal
[2] = tested on: A498 renal
[3] = tested on: A549 NSCLC
[4] = tested on: ACHN renal
[5] = tested on: BT-549 breast
[6] = tested on: CAKI-1 renal
[7] = tested on: CCRF-CEM leukemia
[8] = tested on: COLO 205 colon
[9] = tested on: DU-145 prostate
[10] = tested on: EKVX NSCLC
[11] = tested on: HCC-2998 colon
[12] = tested on: HCT-116 colon
[13] = tested on: HCT-15 colon
[14] = tested on: HOP-62 NSCLC
[15] = tested on: HOP-92 NSCLC
[16] = tested on: HS 578T breast
[17] = tested on: HT29 colon
[18] = tested on: IGROV1 ovarian
[19] = tested on: K-562 leukemia
[20] = tested on: KM12 colon
[21] = tested on: LOX IMVI melanoma
[22] = tested on: M14 melanoma
[23] = tested on: MALME-3M melanoma
[24] = tested on: MCF7 breast
[25] = tested on: MDA-MB-231 breast
[26] = tested on: MDA-MB-435
[27] = tested on: MOLT-4 leukemia
[28] = tested on: NCI-H226 lung
[29] = tested on: NCI-H23 lung
[30] = tested on: NCI-H460 lung
[31] = tested on: NCI-H522 lung
[32] = tested on: NCI/ADR-RES ovarian
[33] = tested on: OVCAR-3 ovarian
[34] = tested on: OVCAR-4 ovarian
[35] = tested on: OVCAR-5 ovarian
[36] = tested on: OVCAR-8 ovarian
[37] = tested on: PC-3 prostate
[38] = tested on: RPMI-8226 leukemia
[39] = tested on: RXF 393 renal
[40] = tested on: SF-268 CNS
[41] = tested on: SF-539 CNS
[42] = tested on: SK-MEL-2 melanoma
[43] = tested on: SK-MEL-28 melanoma
[44] = tested on: SK-MEL-5 melanoma
[45] = tested on: SK-OV-3 ovarian
[46] = tested on: SN12C renal
[47] = tested on: SNB-19 CNS
[48] = tested on: SNB-75 CNS
[49] = tested on: SR leukemia
[50] = tested on: SW-620 colon
[51] = tested on: T-47D breast
[52] = tested on: TK-10 renal
[53] = tested on: U251 CNS
[54] = tested on: UACC-257 melanoma
[55] = tested on: UACC-62 melanoma
[56] = tested on: UO-31 renal
[57] = tested on: HL-60(TB) leukemia
[58] = tested on: SF-295 CNS

COc1ccn2c(C(C)=O)cc(C(=O)c3ccc4c(c3)Sc3ccccc3N4)c2c1
0.248 µM: TGI [31]
0.0454 µM: TGI [26]
> 23.5 µM: TGI [45]
4.93 µM: TGI [12]
> 27.3 µM: TGI [20]
0.351 µM: TGI [17]
0.449 µM: TGI [44]
55.1 µM: TGI [1]
> 38 µM: TGI [30]
> 47.8 µM: TGI [11]
10.6 µM: TGI [25]
inactive: GI50 [23] > 27.8 µM | GI50 [43] 0.884 µM | GI50 [51] 44.7 µM | GI50 [54] > 30.6 µM | GI50 [56] 0.476 µM
0.251 µM: TGI [2]
active: GI50 [1] 0.145 µM | GI50 [2] 0.064 µM | GI50 [3] 0.122 µM | GI50 [4] 0.145 µM | GI50 [5] 0.134 µM | GI50 [6] 0.0527 µM | GI50 [7] 0.135 µM | GI50 [8] 0.0724 µM | GI50 [9] 0.122 µM | GI50 [10] 0.183 µM | GI50 [11] 0.155 µM | GI50 [12] 0.0674 µM | GI50 [13] 0.0982 µM | GI50 [14] 0.136 µM | GI50 [16] 0.182 µM | GI50 [17] 0.0918 µM | GI50 [18] 0.164 µM | GI50 [19] 0.0643 µM | GI50 [20] 0.0874 µM | GI50 [21] 0.15 µM | GI50 [22] 0.0853 µM | GI50 [24] 0.0893 µM | GI50 [25] 0.155 µM | GI50 [26] 0.019 µM | GI50 [27] 0.155 µM | GI50 [28] 0.286 µM | GI50 [29] 0.136 µM | GI50 [30] 0.113 µM | GI50 [31] 0.0321 µM | GI50 [32] 0.0547 µM | GI50 [33] 0.0801 µM | GI50 [35] 0.229 µM | GI50 [36] 0.14 µM | GI50 [37] 0.129 µM | GI50 [38] 0.141 µM | GI50 [39] 0.228 µM | GI50 [40] 0.141 µM | GI50 [41] 0.0654 µM | GI50 [44] 0.104 µM | GI50 [45] 0.124 µM | GI50 [46] 0.33 µM | GI50 [47] 0.158 µM | GI50 [48] 0.0714 µM | GI50 [49] 0.0567 µM | GI50 [50] 0.148 µM | GI50 [52] 0.34 µM | GI50 [53] 0.132 µM | GI50 [55] 0.0894 µM
0.183 µM: TGI [8]
> 100 µM: TGI [3] | TGI [4] | TGI [5] | TGI [6] | TGI [7] | TGI [9] | TGI [10] | TGI [14] | TGI [15] | TGI [16] | TGI [18] | TGI [19] | TGI [21] | TGI [22] | TGI [23] | TGI [24] | TGI [27] | TGI [28] | TGI [29] | TGI [34] | TGI [35] | TGI [36] | TGI [37] | TGI [38] | TGI [39] | TGI [40] | TGI [42] | TGI [43] | TGI [46] | TGI [47] | TGI [48] | TGI [49] | TGI [50] | TGI [51] | TGI [52] | TGI [53] | TGI [54] | TGI [55] | TGI [56]
0.206 µM: TGI [33] | TGI [41]

Cn1c(=O)c(Oc2ccc(F)cc2F)cc2cnc(NC(CO)CO)nc21
inactive: GI50 [1] > 25 µM | GI50 [2] > 25 µM | GI50 [3] > 25 µM | GI50 [4] > 25 µM | GI50 [5] > 25 µM | GI50 [6] > 25 µM | GI50 [7] > 25 µM | GI50 [8] > 25 µM | GI50 [9] > 25 µM | GI50 [11] > 25 µM | GI50 [12] > 25 µM | GI50 [13] > 25 µM | GI50 [57] > 25 µM | GI50 [14] > 25 µM | GI50 [15] 14.7 µM | GI50 [16] > 25 µM | GI50 [17] > 25 µM | GI50 [18] > 25 µM | GI50 [19] > 25 µM | GI50 [20] > 25 µM | GI50 [21] > 25 µM | GI50 [22] > 25 µM | GI50 [23] > 25 µM | GI50 [24] > 25 µM | GI50 [25] > 25 µM | GI50 [26] > 25 µM | GI50 [27] > 25 µM | GI50 [28] > 25 µM | GI50 [29] > 25 µM | GI50 [30] > 25 µM | GI50 [31] > 25 µM | GI50 [32] > 25 µM | GI50 [33] > 25 µM | GI50 [34] > 25 µM | GI50 [35] > 25 µM | GI50 [36] > 25 µM | GI50 [37] > 25 µM | GI50 [38] > 25 µM | GI50 [39] > 25 µM | GI50 [40] > 25 µM | GI50 [58] > 25 µM | GI50 [41] > 25 µM | GI50 [42] > 25 µM | GI50 [43] > 25 µM | GI50 [44] > 25 µM | GI50 [45] > 25 µM | GI50 [46] > 25 µM | GI50 [47] > 25 µM | GI50 [48] > 25 µM | GI50 [49] > 25 µM | GI50 [50] > 25 µM | GI50 [51] > 25 µM | GI50 [52] > 25 µM | GI50 [53] > 25 µM | GI50 [54] > 25 µM | GI50 [55] > 25 µM | GI50 [56] > 25 µM
> 25 µM: TGI [1] | TGI [2] | TGI [3] | TGI [4] | TGI [5] | TGI [6] | TGI [7] | TGI [8] | TGI [9] | TGI [11] | TGI [12] | TGI [13] | TGI [57] | TGI [14] | TGI [15] | TGI [16] | TGI [17] | TGI [18] | TGI [19] | TGI [20] | TGI [21] | TGI [22] | TGI [23] | TGI [24] | TGI [25] | TGI [26] | TGI [27] | TGI [28] | TGI [29] | TGI [30] | TGI [31] | TGI [32] | TGI [33] | TGI [34] | TGI [35] | TGI [36] | TGI [37] | TGI [38] | TGI [39] | TGI [40] | TGI [58] | TGI [41] | TGI [42] | TGI [43] | TGI [44] | TGI [45] | TGI [46] | TGI [47] | TGI [48] | TGI [49] | TGI [50] | TGI [51] | TGI [52] | TGI [53] | TGI [54] | TGI [55] | TGI [56]
